Publication PMC3006138, “Fexinidazole – A New Oral Nitroimidazole Drug Candidate Entering Clinical Development for the Treatment of Sleeping Sickness” (PLoS Neglected Tropical Diseases, 2010)
In brackets after ≈: the same amount, converted by molar mass.

What was measured:
[1] = tested on: T. b. gambiense clinical isolates; test: In vitro trypanocidal assay, clinical isolates; type: cell-based; settings: Trypanosoma brucei, six recent clinical isolates, data not shown
Method: Parasites were cultured with or without the test article at a concentration of 3×10^4/mL in Minimal Essential Medium, according to Baltz et al., with the following modifications: 0.2 mM 2-mercaptoethanol, 1 mM Na-pyruvate, 0.5 mM hypoxanthine and 15% heat inactivated horse serum at 37°C in 5% CO2 in 96-well microtitre plates for 72 h. 10 µL of Alamar Blue was added for the final 3 h to determine viability. The assay was assessed by reading the fluorescence in each well at an excitation wavelength of 536 nm and at an emission wavelength of 588 nm. The IC50 values were calculated from the sigmoidal inhibition curves. For cytotoxicity, 4×10^4/mL L-6 rat skeletal myoblast cells were used, and incubations and assessments carried out as above.

[2] = Hepatocyte intrinsic clearance and metabolite profile; type: in vitro ADME, human; settings: human, cryopreserved pooled hepatocytes, 1 µM
Method: Fexinidazole was incubated with cryopreserved hepatocytes from male CD-1 mice, male Sprague Dawley rats, male beagle dogs, male cynomolgus monkeys, and from pooled white or African-American human donor samples (purchased commercially), at concentrations of 1 µM and 10 µM. […] The incubated samples were analyzed by LC-MS after extraction into acetonitrile.
A quality control analysis of fexinidazole was performed via 1H-NMR in DMSO and LC- […]
provided by the Swiss Tropical Institute (Basel, Switzerland).
Reagents and solvents were of analytical grade and obtained from Sigma-Aldrich (St. Louis, […]
Cryopreserved hepatocytes from the male CD1 mouse, lot CSI; male Sprague Dawley rat, lot LPL; male beagle dog, lot BWX; male cynomolgus monkey, lot EHH; and pooled human samples, lot MJI, were purchased from In Vitro Technologies Inc (Baltimore, Maryland, […]
5.4. In vitro Incubations
On the day of the experiment a 10 mM stock solution of fexinidazole in DMSO was prepared and, within 3 hours, aliquots of this freshly prepared solution, after suitable dilution, were added to the incubation matrix, to reach fexinidazole final concentrations of 1 and 10 µM. The final percentage of DMSO was 0.01% in the incubation samples for the […]
On the day of experiment, the cryopreserved hepatocytes were thawed following the detailed instructions provided by the supplier.
The number of viable cells was determined using a Trypan Blue exclusion method.
5.4.1. Intrinsic Clearance Study […]
µM with mouse, rat, dog, monkey and human hepatocytes (300000 cells/mL for the mouse and 1 million cells/mL for the other species) in a final incubation volume of 0.75 mL […]
Incubations were performed in duplicate in a 48-well plate under shaking. Sampling was performed using an automatic liquid handling system (Multiprobe II EX, Packard). At 0, 1, 5, 10, 15, 20, 30, 60 and 120 minutes, 50 µL aliquots of the incubates were taken, then 80 µL of ice-cold acetonitrile and 20 µL of 1 µM warfarin in acetonitrile (internal standard) were added, and samples centrifuged at 2000 rpm for 20 min. The supernatant was analyzed by LC-MS/MS. […]
the medium alone at t = 0 and 120 minutes.
For the determination of phase I and phase II activity of hepatocytes, 7-ethoxycoumarin (7-EC) 1 µM, and 7-hydroxycoumarin (7-HC) 30 µM were used as positive controls and incubated under the same conditions as fexinidazole. Aliquots of incubates were taken at 0, 10, 20, 30, 60 and 120 minutes and processed as fexinidazole samples.
5.4.2. Metabolite Profile Study
For metabolite profiling, fexinidazole was incubated at a concentration of 10 µM with mouse, rat, dog, monkey and human hepatocytes (300000 cells/mL for the mouse and 1 million cells/mL for the other species) in a final incubation volume of 2 mL Leibovitz L-15 […]
Aliquots of the incubation samples were taken at t = 0, 30 and 120 minutes; the metabolism was stopped by the addition of an equal volume of cold acetonitrile and the samples centrifuged at 1500 rpm for 20 min. The supernatant was stored at -20°C until analysis. Control incubations were performed with the compound in the medium alone […]
5.5. Analysis of Samples for Intrinsic Clearance Determination
The analysis of the samples for intrinsic clearance determination was performed by an LC-MS/MS method, using the following conditions:
HPLC Equipment and Conditions
HPLC system Agilent 1100 binary pump (Agilent, Palo Alto, USA)
Autosampler CTC Pal (Alfatech, San Jose, USA)
Analytical column Guard Column SB-C8 4.6 x 12.5 mm, 5 µm (Zorbax)
Column temperature ambient
Mobile phase A 10 mM ammonium formate pH 4.0: acetonitrile (95:5, v:v)
Mobile phase B 10 mM ammonium formate pH 4.0: acetonitrile (5:95, v:v) […]
Gradient conditions Step Total time (min) flow (µL/min) %A % B […]
MS Equipment and Conditions
Mass spectrometer API 4000 Triple Quadrupole (MDS-Sciex, Toronto, […]
Source Turbo Ion Spray (TIS)
Ion mode Positive for fexinidazole and 7-EC.
Negative for 7-HC, 7-HC sulphate and 7-HC glucuronide.

[3] = Preliminary embryo-foetal and early postnatal development study; type: in vivo, rat; settings: pregnant rats
Method: In the rat study, fexinidazole was administered orally by gavage once a day from day 6 to day 17 of gestation or from day 6 of gestation to day 7 of lactation to 10 mated rat Crl:CD (SD)IGS BR rats[…]/group at doses of 50, 200, or 800 mg/kg/day. A control group received the vehicle alone (5% Tween 80/0.5% methocel).

## CSc1ccc(OCc2ncc([N+](=O)[O-])n2C)cc1 [Fexinidazole, 1-methyl-2-((p-(methylthio)phenoxy)methyl)-5-nitroimidazole]
[1]
  IC50: 0.3 to 0.93 µg/mL (≈ 1.07 to 3.33 µM)
[2]
  half-life at 1 µM: 13 min
[2]; read-out: CLint in vitro
  CLint scaled at 1 µM: 124 mL/min/kg
  hepatocyte CLint at 1 µM: 51.9 µL/min/1e6 cells
[3]
  effects on embryo-foetal and early postnatal development: no adverse effects on embryos/foetuses, parturition, and neonates
